Broadly, the melting point is the temperature, or range, at which the solid turns liquid.

`CC(=O)c1cc(F)cc(Cl)c1` returned a melting point of 53 °C. For `C=CCNC(=O)OC(C)(C)C` the value was 37 °C; for `O=C(O)C(c1ccc(Cl)cc1)c1ccc(Cl)cc1`, 168 °C; for `NC1=NCC2c3ccccc3Cc3ccccc3N12` (configuration not stated), 206 °C. As for `Cc1cc2nc(N)sc2cc1C`, the figure is 185 to 189 °C. As for `CC1CC=CC2C3OC3(C)C(C)C3C(Cc4ccccc4)NC(=O)C23OC(=O)OC=CC(C)(O)C1=O` (configuration not stated), the figure is 206 °C. `COc1ccc(O)c([N+](=O)[O-])c1` returned a melting point of 79 °C. Regarding `Nc1cccnc1N1CCOCC1`, the melting point is 127 to 128 °C. For `CCCCCCCCCCOc1ccc(C(=O)O)cc1` the value was 114 °C; for `CCc1n[nH]c2cc(-c3ccccc3)nn12`, 188 to 190 °C.

In turn, `CC(=O)Nc1ccc(CC(=O)O)cc1` registered a melting point of 173 °C.

`CCCCCCCC(=O)Oc1c(Br)cc(C#N)cc1Br` displayed a melting point of 45.5 °C. In turn, `CC1(C)C2CCC(O2)C(Cl)C1O` (configuration not stated) showed a melting point of 71 to 72 °C. For `CCOC(=O)c1cccc(-c2nccs2)c1` the value was 50 to 52 °C. For `CCOC(=O)C(C#N)=c1sc(=C(C#N)C(=O)OCC)s1` the value was 159 to 162 °C; for `CCC(C)(C(N)=O)c1ccccc1` (configuration not stated), 101 °C; for `CCOc1ncnc2c1cnn2-c1ccccc1`, 94 to 96 °C. `N#CC1=Cc2ccccc2C1` registered a melting point of 40 °C.

`O=[N+]([O-])c1ccc(NN=CC2=C(/C=C/c3ccccc3)CCCC2)c([N+](=O)[O-])c1` registered a melting point of 261 to 262 °C. As for `O=C1[C@H]2CC3=C(CC=CC3)C[C@H]2C(=O)[C@H]2CC3=C(CC=CC3)C[C@@H]12`, the figure is 300 to 302 °C; as for `FC(F)(F)C(F)(F)C(Cl)Cl`, -94 °C; as for `O=S(=O)(Cl)c1ccc2c(c1)OCCCO2`, 50 to 52 °C. The compound `CC(O)C(O)(c1ccccc1)c1ccccc1` (configuration not stated) registered a melting point of 92 °C. For `COC(=O)CCC(C)C1CCC2C3C(OC(C)=O)C(Br)C4CCCCC4(C)C3CCC12C` (configuration not stated) the value was 158 to 159 °C. In turn, `CCN(C(=S)Cl)c1ccccc1` showed a melting point of 56 to 58 °C. The compound `CC1=CC2OC3C(O)CC(C)(C34CO4)C2(CO)C(O)C1=O` (configuration not stated) yielded a melting point of 152 °C.

The compound `O=[N+]([O-])c1cc(Br)cc2c1NCC2` showed a melting point of 131 °C.

Regarding `O=CNc1ccc(C2=NNC(=O)CC2)cc1`, the melting point lay within 253 to 256 °C.

`O=C(Nc1cccc2cc(OC(=O)c3ccccc3)ccc12)c1ccccc1`: the melting point was 222 to 223 °C.

With `O=C(Nc1nnc(-c2ccc(Cl)cc2)o1)c1ccc(F)cc1`, the melting point lay in the range of 282 to 284 °C. Turning to `NC(Cc1ccc(F)cc1F)C(=O)O` (racemic), the melting point lay within 224 to 226 °C.

`CCOC(=O)CC(O)(CC(=O)OCC)C(=O)OCC` gave a melting point of -46 °C.

`COC(=O)c1cc2ccccc2cc1C(=O)OC` displayed a melting point of 49 °C. As for `CCOC(=O)CC[C@H](NC(=O)c1ccc(N)cc1)C(=O)OCC`, the figure is 141 °C; as for `CC1(C)CCC2(C)CC=C3C(C)(CCC4C3(C)CCC3C(C)(C)C(O)CCC43C)C2C1` (configuration not stated), 284 °C. Take `COc1ccc2c(=O)c(=O)c2c1`: the melting point came to 102 °C.

The compound `BrCCCCCCCBr` yielded a melting point of 41.7 °C.

With `Cc1ccc(S(=O)(=O)N2CCCN(S(=O)(=O)c3ccc(C)cc3)CCN(S(=O)(=O)c3ccc(C)cc3)CCC2)cc1`, the melting point came to 238 °C.

Compound `CCCCCCCCCCCCN1CC(C(=O)O)CC1=O` (configuration not stated) yielded a melting point of 39 °C. As for `Cc1ccc(CNC2=CC(=O)c3ccccc3C2=O)nc1`, the figure is 134 to 136 °C; as for `Cc1ccc([N+](=O)[O-])cc1N=C=O`, 51 °C; as for `Nc1c(Br)cccc1C(=O)O`, 173 to 175 °C. As for `CCCCNc1ccccc1`, the melting point was -12 °C.

For the compound `Cc1ccc(C(N)=NO)cc1`, the melting point is 136 to 137 °C. As for `O=S(=O)(Cl)c1cc(Cl)c(Cl)s1`, the figure is 56 °C.

Consider `Nc1n[nH]c(N)c1Cc1ccc2c(c1)OCO2`, for which the melting point was 169 to 171 °C. The compound `N#Cc1ccc(NC(N)=S)cc1` displayed a melting point of 209 to 210 °C. `CCOC(=O)C1(S(=O)(=O)c2ccc(C)cc2)CC1` gave a melting point of 75.5 °C. For `CC1NC(=O)C(C)NC1=O` (configuration not stated) the value was 274 to 278 °C; for `C#CCCCCCCCCCCCCCCCCCC`, 36 °C.

With `O=C(Nc1ccccc1)Nc1nnc(C(F)(F)F)s1`, the melting point fell in the range of 149 to 151 °C.

Compound `COc1ccc(C=Cc2cc(OC)cc(=O)o2)cc1` gave a melting point of 156 °C. Take `Nc1ncnc2c1ncn2C1OC(COP(=O)(O)OP(=O)(O)OP(=O)(O)O)C(O)C1O` (configuration not stated): the melting point stood at 176 °C. `CCCCCCCCCCCCCCCC(N)=O` had a melting point of 107 °C. For `CCCCO[Si](OCCCC)(OCCCC)OCCCC` the value was -80 °C. As for `CN(C=O)c1ccc(C(=O)O)cc1`, the figure is 217 to 221 °C. As for `Oc1c(I)cc(Cl)c2cccnc12`, the figure is 178 °C. In the case of `COc1c(OC)c(OC(C)=O)c2c(C#N)cccc2c1OC(C)=O`, the melting point came to 152 °C. As for `CC(=O)NCCc1c[nH]c2ccc(O)cc12`, the figure is 120 to 122 °C; as for `CCC1OC(=O)C(C)C(OC2OC(C)CC(N(C)C)C2O)C(C)CC(C)C(=O)C=CC1(C)O` (configuration not stated), 196 °C; as for `O=C(Oc1ccccc1)c1ccc2ccccc2c1O`, 93 to 97 °C. For `O=S1OCC2C(CO1)C1(Cl)C(Cl)=C(Cl)C2(Cl)C1(Cl)Cl` (configuration not stated) the value was 109 °C; for `Cc1cccc2c1C/C2=N/Nc1ccc([N+](=O)[O-])cc1[N+](=O)[O-]`, 227 °C; for `CC1(C)C(=O)NC1c1ccccc1` (configuration not stated), 150 °C. As for `O=c1oc2c(O)c(O)cc3c(=O)oc4c(O)c(O)cc1c4c23`, the figure is 450 °C; as for `CCCOC(=O)C1=C(C)NC(=S)NC1c1ccco1` (configuration not stated), 177 °C.

In turn, `O=C(Cc1ccccc1)c1ccc(O)cc1O` gave a melting point of 112 to 117 °C. For `Cc1cc([N+](=O)[O-])ccc1O` the value was 96 °C; for `CC(C)Oc1ccccc1`, -33 °C; for `O=C(/C=C/c1ccc(Cl)c(Cl)c1)c1ccc2ccccc2c1`, 153 °C.

For the compound `Cc1cc([N+]([O-])=Nc2ccccc2)ccc1[N+]([O-])=Nc1ccccc1`, the melting point came to 100 °C.

`NNc1nc(N)nc(-c2ccccn2)n1`: the melting point fell in the range of 287 to 289 °C. As for `CC(=O)c1ccc(-c2ccc(Br)cc2)cc1`, the figure is 126 °C; as for `CCOc1cc(C)ccc1O`, 30.5 °C; as for `CC12CCC(=O)C=C1CCC1C2C(=O)CC2(C)C(C(=O)CO)CCC12` (configuration not stated), 184 °C. For `CCOc1n[nH]c(=O)c(Br)c1Br` the value was 206 °C. As for `CCC(=O)OCN1C(=O)NC(c2ccccc2)(c2ccccc2)C1=O`, the melting point was 171 °C.

Take `O=C(C1=NOC2C(=O)N(c3cc(Cl)ccc3Cl)C(=O)C12)c1ccc([N+](=O)[O-])cc1` (configuration not stated): the melting point stood at 216 °C. As for `CC=C1CC(C)C(O)(CO)C(=O)OCC2=CCN3CCC(OC1=O)C23` (configuration not stated), the figure is 212 °C; as for `CC(C)(C)c1cc(C(=Nc2ccccc2)Nc2ccccc2)cc(C(C)(C)C)c1O`, 130 to 131 °C. As for `COc1cc(O)c2c(=O)c(O)c(-c3ccc(O)c(O)c3)oc2c1`, the figure is 295 °C; as for `COc1ccc(N)cc1N`, 67.5 °C; as for `Nc1cc(F)c(Br)cc1F`, 75 °C. Compound `O=c1[nH]c2ccccc2n1C1=CCNCC1` registered a melting point of 195 to 200 °C.

`CC1=C(c2ccccc2)C(=O)N(C(C)(C)c2cc(Cl)cc(Cl)c2)CO1` showed a melting point of 150 °C. As to `CCCN(CCC)c1c([N+](=O)[O-])cc(C(F)(F)F)c(N)c1[N+](=O)[O-]`, the melting point came out at 124 °C.

As to `N=C(c1ccccc1)c1ccccc1`, the melting point was -30 °C. As for `BrCc1cccc(N2CCCC2)n1`, the melting point lay in the range of 69 to 72.5 °C. For `O=C(CBr)c1cc2ccccc2o1` the value was 89 to 90 °C; for `C(=N\CC/N=C/c1ccc2c(c1)OCO2)/c1ccc2c(c1)OCO2`, 178 °C. As for `NC(Cc1ccc(N(CCCl)CCCl)cc1)C(=O)O` (configuration not stated), the figure is 182 °C.

`N#CCc1cccc([N+](=O)[O-])c1` had a melting point of 63 °C. For `CC(=O)c1cc(F)c(Cl)cc1Cl` the value was 35 °C; for `Nc1c([N+](=O)[O-])cccc1[N+](=O)[O-]`, 142 °C; for `Brc1ccccc1Oc1ccccc1`, less than 20 °C.

In turn, `FC(Br)C(F)(F)F` (configuration not stated) returned a melting point of -80 °C. `Cc1ccc(C=NO)cc1` showed a melting point of 126 °C. As for `N#Cc1c(N=[N+]([O-])c2cnn(-c3ccccc3)c2C#N)cnn1-c1ccccc1`, the figure is 265 °C; as for `CC(=O)OC1Cc2ccccc21` (configuration not stated), 31 °C. For `Cc1oc(-c2ccccc2)nc1CN` the value was 42 to 46 °C; for `O=C(O)c1[nH]c2ccccc2c1Br`, 185 to 188 °C; for `Cc1cc(C)c(C(=O)O)c(C)n1`, 130 to 160 °C. As for `CN1CCC23CCCCC2C1Cc1ccc(O)cc13` (configuration not stated), the figure is 198 °C. `Cc1ccc(C)n1-c1ccsc1C(=O)NN` yielded a melting point of 135 to 136 °C. As for `O=[N+]([O-])c1ccc(-c2nc(-c3ccccc3)c(-c3ccccc3)[nH]2)cc1`, the figure is 243 to 246 °C; as for `OC1C(O)C(O)C(O)C(O)C1O` (configuration not stated), 230 °C. As for `O=C(Nc1ccccc1Br)C(C(F)(F)F)C(F)(F)F`, the figure is 183 to 185 °C.

The values above are taken from a melting point compilation (Tetko et al.).
